What all share (test): inhibition of tumour cell growth, NCI panel, 48 h
For test [1], the system named is HS 578T breast.
For test [2], the system named is UO-31 renal.
The test system of test [3] is U251 CNS.
In test [4] the test system is M14 melanoma.
Test [5] has as its system A498 renal.
Test [6] relates to OVCAR-5 ovarian.
Test [7] deals with MOLT-4 leukemia.
Test [8] deals with SK-MEL-28 melanoma.
Test [9] has as its system NCI/ADR-RES ovarian.
The subject of test [10] is PC-3 prostate.
Test [11] has as its system SN12C renal.
In test [12] the test system is CAKI-1 renal.
For test [13], the system named is HCT-116 colon.
The subject of test [14] is NCI-H460 lung.
Test [15] deals with IGROV1 ovarian.
Test [16] has as its system TK-10 renal.
Test [17] concerns CCRF-CEM leukemia.
Test [18] concerns A549 NSCLC.
In test [19] the test system is SF-539 CNS.
The subject of test [20] is HCC-2998 colon.

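Exposure lasted 48 hours, with cells grown in 96-well plates and compounds tested at five concentrations. TGI: concentration producing complete growth inhibition.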 Some results are limits rather than exact numbers.

Turning to `CCOC(=O)C(NC(=O)c1ccccc1)(Nc1ccc(S(=O)(=O)Nc2cc(C)nc(C)n2)cc1)C(F)(F)F` (stereo not drawn), the TGI in test [1], in [2], in test [3], in [4], in test [5] and in test [6] was over 100 µM each time. Further, the TGI in [7], in [8], in [9], in [10], in [11] and in test [12] was over 100 µM in each case. The TGI in test [13], in [14], in [15], in test [16], in test [17] and in test [18] was over 100 µM in each case. In test [19], this compound returned a TGI of over 100 µM.
Consider `C=C1CC(C)(COc2ccc3c(C)cc(=O)oc3c2)OC1=O` (stereo not drawn), for which the TGI in test [1] worked out at 31.9 µM; in test [2] it was 18.9 µM; in test [3], 25.4 µM; in [4], 3.35 µM; in test [6], 16.5 µM; in test [7], 4.2 µM. For the same compound, the TGI amounted to 9.02 µM in test [8]; 9.5 µM in test [20]; 17.6 µM in [9]; 13.5 µM in test [10]; 16.8 µM in [11]; 7.53 µM in test [12]. Moreover, the TGI in test [13] came out at 4.72 µM; in test [14], 20.8 µM; in test [15], 8.98 µM; in [16], 4.06 µM; in test [17], 2.46 µM; in test [18], 23.8 µM. In test [19], the TGI stood at 4.59 µM.
For `O=C1OCCC[C@H]2O[C@@H](COCc3ccccc3)C[C@@H]12`, the TGI in [1], in test [2], in test [3], in test [4], in [5] and in test [6] was over 100 µM in each case. The TGI in [7], in [8], in [9], in test [10], in test [11] and in test [12] was over 100 µM throughout. The TGI in test [13], in test [14], in test [16], in test [17], in test [18] and in test [19] was over 100 µM each time.
Turning to `O=C(NNC(=O)c1ccccc1O)c1ccco1`, the TGI in test [1], in test [2], in test [3], in test [4], in [5] and in [6] was over 100 µM in each case. Moreover, the TGI in test [7], in [8], in [9], in test [10], in test [11] and in test [12] was over 100 µM each time. Moreover, the TGI in test [13], in [14], in [15], in test [16], in [17] and in test [18] was over 100 µM in each case. In addition, in test [19], the TGI is over 100 µM.
With `COC(=O)C(/C(=N/N)C(=O)Nc1cccc(O)c1)c1nc2ccccc2[nH]c1=O` (stereo not drawn), the TGI in test [1], in [2], in test [3], in test [4], in [5] and in test [6] was over 100 µM each time. Also, the TGI in [7], in test [8], in test [20], in test [9], in [10] and in test [11] was over 100 µM each time. Further, the TGI in test [12], in test [13], in test [14], in test [15], in test [16] and in test [18] was over 100 µM throughout. The compound further gave a TGI in test [19] of over 100 µM.
With `Cc1ccc(/C=C2\NC(=S)N(CN3CCCCC3)C2=O)cc1`, the TGI in [1], in test [2], in test [3], in [4], in test [5] and in test [6] was over 100 µM throughout. Further, the TGI in [7], in test [8], in test [9], in test [10], in test [11] and in [13] was over 100 µM in each case. For the same compound, the TGI in [15] was over 100 µM; in test [16] it was over 100 µM; in [17] it was 86.7 µM; in test [18] it was over 100 µM.
`COCCOC1=C(Cl)C(=O)c2c(O)ccc(O)c2C1=O`: the TGI came to 8.34 µM in [1]; 3.83 µM in test [2]; 12.1 µM in test [3]; 3.22 µM in test [4]; 22.2 µM in test [5]; 13.7 µM in test [6]. The TGI in test [7] came out at 0.481 µM; in test [8] it was 5.07 µM; in test [20] it was 15.6 µM; in test [9] it was 8.5 µM; in [10] it was 13 µM; in test [11], 4.04 µM. Besides, the TGI in [12] was 1.11 µM; in test [13] it was 2.6 µM; in test [14], 17.2 µM; in test [15] it was 6.27 µM; in test [16] it was 3.24 µM; in test [18], 28.5 µM. The same compound showed a TGI in [19] of 5.46 µM.
Regarding `N#CCC1(c2ccc(Cl)cc2)NC(=O)c2ccccc21` (stereo not drawn), the TGI in test [1], in [2], in test [3], in test [4], in test [5] and in test [6] was over 100 µM in each case. In addition, the TGI in test [7], in test [8], in [9], in test [10], in [11] and in [12] was over 100 µM in each case. Besides, the TGI in test [13], in test [14], in test [15], in [16], in test [17] and in [18] was over 100 µM each time. Moreover, the TGI in test [19] was over 100 µM.

For the origin of these results see PubChem BioAssay (NCI).
